Assay results as given in US4471116A, “Substituted (10H-phenothiazin-10-L)-propyl-1-piperazines” (Hoffmann-La Roche Inc., priority 1982, dated 1984).
Read-outs that look alike come from different tables or passages of the source.

Legend:
avoidance behavior = test: Discrete Avoidance - Rats (avoidance block / escape block); assay type: in vivo, rat; conditions: for duration of neuroleptic effect (in words): discrete avoidance procedure; for Discrete Avoidance, % Block: Rats, 40 mg/kg, oral
Text: For example, by one procedure, trained rats are placed in experimental chambers equipped with a response lever, a steel grid floor for delivery of electric shock and a loudspeaker for presentation of auditory stimuli. […] The rats can terminate a trial at any point by depression of the response lever. A response during the initial fifteen-second warning tone ends the trial before shock delivery and is considered an avoidance response, while a response occurring during shock delivery is an escape response. Trials are presented every two minutes during a one-hour test session (30 trials per session). […] Compounds are administered to a minimum of three to four rats at each dose level over a range of doses. Rats receive vehicle alone, during control sessions prior to drug administration. Each rat is tested daily or weekly, after a single drug administration, until avoidance behavior returns to pre-drug baseline levels. The session is divided into three consecutive twenty minute (ten trial) segments. Response counts are summed over all subjects at a given dose within each segment. […] This number is expressed as a percentage of the total trials within the segment. […] The lowest dose which produced a 20% block of escape responding (EBD 20) is read from a graphic dose-effect plot. In obtaining these values, percent effect is plotted against the log dose.

[1] = test system: Dopamine Turnover-Brain Caudate; test: Dopamine Turnover-Brain, Caudate; assay type: in vivo; conditions: Rat
[2] = test system: Dopamine Turnover-Brain Limbic and Remainder; test: Dopamine Turnover-Brain, Limbic and Remainder; assay type: in vivo; conditions: Rat
[3] = test system: Apomorphine Induced Emesis; test: Apomorphine Induced Emesis antagonism (Dogs); assay type: in vivo, dog; conditions: for ED50: Canis lupus familiaris, Dog, SC, read-out: Anti-Apomorphine Emesis ED50; for Apomorphine Induced Emesis % Antagonism: Dogs, 5 mg/kg, subcutaneous
Continuous Avoidance [4] = test: Continuous Avoidance (Squirrel Monkeys); assay type: in vivo, squirrel monkey; conditions: for minimal effective dose: Primates, Squirrel Monkey, PO, read-out: Continuous Avoidance MED Shocks; for Continuous Avoidance, % Decrease of Responding: Squirrel Monkeys, 5 mg/kg, oral
[5] = test system: Amphetamine Induced Rotation; test: Amphetamine Induced Rotation antagonism (S. Nigra Lesioned Rats) / Rotation Antagonism; assay type: in vivo, rat; conditions: for ED50: Rat, PO; for Amphetamine Induced Rotation % Antagonism: S. Nigra Lesioned Rats, 40 mg/kg, oral
[6] = test system: Confinement Motor Activity; test: Confinement Motor Activity; assay type: in vivo; conditions: Rat, PO, read-out: Confinement Motor Activity DD50
Prolactin Secretion = Prolactin Secretion (in-vitro); assay type: cell-based; conditions: Rat, read-out: Prolactin Secretion ID50
revertant colonies = test: Ames procedure (mutagenicity)
[7] = Acute toxicity (LD50) in mice after a single dose; conditions: mouse, in vivo; for LD50 at 168 h: 7 days
Continuous Avoidance [8] = test: Continuous Avoidance, % Decrease of Responding (Rats); assay type: in vivo, rat; conditions: 40 mg/kg, oral
[9] = target: T1, Dopamine Adenylate Cyclase (Rattus norvegicus, UniProt P18901); test: biochemical; conditions: in-vitro, read-out: Dopamine Adenylate Cyclase Inhibition-Limbic IC50
T1 construct: from tissue; host or cells: limbic brain tissue
T1 sequence (P18901 whole entry): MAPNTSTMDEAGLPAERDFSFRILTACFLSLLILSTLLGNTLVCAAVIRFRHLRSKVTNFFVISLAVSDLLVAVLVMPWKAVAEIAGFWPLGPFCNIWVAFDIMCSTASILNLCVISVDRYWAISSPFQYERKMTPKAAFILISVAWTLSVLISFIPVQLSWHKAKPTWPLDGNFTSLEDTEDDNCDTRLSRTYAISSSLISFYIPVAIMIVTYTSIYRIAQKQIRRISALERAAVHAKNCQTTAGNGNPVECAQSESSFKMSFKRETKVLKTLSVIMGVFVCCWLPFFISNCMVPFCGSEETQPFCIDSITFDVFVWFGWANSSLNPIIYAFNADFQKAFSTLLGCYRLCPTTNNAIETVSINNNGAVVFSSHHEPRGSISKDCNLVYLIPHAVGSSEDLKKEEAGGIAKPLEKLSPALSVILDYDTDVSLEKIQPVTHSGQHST

[10] = target: T2, 3H--Spiroperidol Binding-Caudate (Rattus norvegicus, UniProt P61169); test: biochemical
T2 construct: from tissue; host or cells: caudate (brain)
T2 sequence (P61169 whole entry): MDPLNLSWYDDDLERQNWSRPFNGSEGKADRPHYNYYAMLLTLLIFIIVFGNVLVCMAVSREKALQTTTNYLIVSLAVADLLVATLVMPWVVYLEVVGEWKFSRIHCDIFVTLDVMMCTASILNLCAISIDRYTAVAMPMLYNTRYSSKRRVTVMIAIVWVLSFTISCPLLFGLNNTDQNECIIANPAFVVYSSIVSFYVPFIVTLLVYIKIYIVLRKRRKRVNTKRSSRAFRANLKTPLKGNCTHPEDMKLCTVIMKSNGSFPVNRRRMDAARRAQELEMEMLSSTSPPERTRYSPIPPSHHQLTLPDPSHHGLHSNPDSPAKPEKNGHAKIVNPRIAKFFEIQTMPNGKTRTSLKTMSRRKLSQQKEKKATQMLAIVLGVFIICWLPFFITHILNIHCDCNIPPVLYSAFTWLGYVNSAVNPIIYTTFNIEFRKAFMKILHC

Pole-Climb Avoidance = test: Pole-Climb Avoidance, % Block; assay type: in vivo, rat; conditions: Rats, 40 mg/kg, oral
Serum Prolactin = Serum Prolactin Levels (Rats); assay type: in vivo, rat; conditions: 15 mg/kg, oral

## CN(C)CCCN1c2ccccc2Sc2ccc(Cl)cc21 [Chlorpromazine, chlorpromazine, reference compound]
Avoidance behavior; Rattus norvegicus, po, 1 h, read-out: Discrete Avoidance ABD50
  ED50: 5 mg/kg
[1]; 10 mg/kg IP, 1 Hour Post-Drug
  Dopamine Turnover-Brain, Caudate: Signif. .uparw.
[2]; 10 mg/kg IP, 1 Hour Post-Drug
  Dopamine Turnover-Brain, Limbic and Remainder: Signif. .uparw.
[3]; 1 Hour Post-Drug
  ED50: 1.4 mg/kg
Continuous Avoidance [4]; 1 Hour Post-Drug
  minimal effective dose: 2 mg/kg
[5]; 1 Hour Post-Drug
  ED50: 20.5 mg/kg
[6]; 1 Hour Post-Drug
  ED50: 4.6 mg/kg
Prolactin Secretion
  IC50: 130 nM

## CC(C)Nc1ccc(OCCN2CCN(CCCN3c4ccccc4Sc4ccc(Cl)cc43)CC2)cc1.O=C(O)/C=C\C(=O)O [Compound B, N-[4-[2-[4-[3-(2-chloro-10H-phenothiazin-10-yl)propyl]-1-piperazinyl]ethoxy]phenyl]-α-methylethaneamine (Z)-2-butenedioate]
Avoidance behavior; 30 mg/kg po
  Duration of Sig. Activity: 3 days
  Time of Peak Effect: 60 min
Avoidance behavior; Rattus norvegicus, 1 h, 30 mg/kg po, 60 min. post-drug, read-out: Percentage Block of Avoidance, 60 min. post-drug
  inhibition in vivo at 30 mg/kg: 100%
Avoidance behavior; Rattus norvegicus, po, 1 h, p.o., 60 minutes pretreatment, day of administration, read-out: ABD50
  ED50: 8.7 mg/kg
Avoidance behavior; Rattus norvegicus, 30 mg/kg po, 24 hrs. post-drug, read-out: Percentage Block of Avoidance, 24 hrs. post-drug
  inhibition in vivo at 30 mg/kg: 70%
Avoidance behavior; Rattus norvegicus, 30 mg/kg po, at the indicated duration, read-out: Avoidance block at Duration of Sig. Activity (AB)
  inhibition in vivo at 30 mg/kg: 43%
Avoidance behavior; Rattus norvegicus, 30 mg/kg po, at time of peak effect, read-out: Avoidance block at Time of Peak Effect (AB)
  inhibition in vivo at 30 mg/kg: 100%
Avoidance behavior
  duration of neuroleptic effect (in words): several days
Avoidance behavior; p.o.
  time of maximum neuroleptic activity (in words): on the day of administration
Revertant colonies
  mutogenic effects (conclusion): free of mutogenic effects
  revertant colonies (Ames): no increase in revertant colonies
[7]; ip
  LD50 at 168 h: 230 mg/kg
[7]; po
  LD50 at 24 h: > 1000 mg/kg
  LD50 at 168 h: 248 mg/kg

## CC(C)NC[C@H](O)COc1ccc(OCCN2CCN(CCCN3c4ccccc4Sc4ccc(Cl)cc43)CC2)cc1.Cl.Cl.Cl [Compound A, (S)-1-(1-methylethylamino)-3-[4-[2-[4-[3-(2-chloro-10H-phenothiazin-10-yl)propyl]piperazine-1-yl]ethoxy]phenoxy]-2-propanol trihydrochloride]
Avoidance behavior; 40 mg/kg po
  Duration of Sig. Activity: 8 weeks
  Time of Peak Effect: 2900 to 14400 min
Avoidance behavior; 168 h, Rat, PO, 7 Days Post-Drug, read-out: Discrete Avoidance ABD50
  ED50: 19 mg/kg
Avoidance behavior; Rat, PO, 7 Days Post-Drug
  EBD20/ABD50 Ratio: > 2.1
Avoidance behavior; single administration, 1-4 hours
  Discrete Avoidance, % Block: 40%
Avoidance behavior; 1 week
  Discrete Avoidance, % Block: 84%
Avoidance behavior; 2-4 hours
  Discrete Avoidance, % Block: 78%
Avoidance behavior; 2 weeks
  Discrete Avoidance, % Block: 80%
Avoidance behavior; 3 weeks
  Discrete Avoidance, % Block: 84%
Avoidance behavior; 4 weeks
  Discrete Avoidance, % Block: 82%
Avoidance behavior; 5 weeks
  Discrete Avoidance, % Block: 56%
Avoidance behavior; 6 weeks
  Discrete Avoidance, % Block: 50%
Avoidance behavior; 7 weeks
  Discrete Avoidance, % Block: 31%
Avoidance behavior; 8 weeks
  Discrete Avoidance, % Block: 30%
Avoidance behavior; Rattus norvegicus, 1 h, 40 mg/kg po, 60 min. post-drug, read-out: Percentage Block of Avoidance, 60 min. post-drug
  inhibition in vivo at 40 mg/kg: 40%
Avoidance behavior; Rattus norvegicus, po, 7-10 days after administration, read-out: ABD50
  ED50: 13.5 mg/kg
Avoidance behavior; Rattus norvegicus, 40 mg/kg po, 24 hrs. post-drug, read-out: Percentage Block of Avoidance, 24 hrs. post-drug
  inhibition in vivo at 40 mg/kg: 77%
Avoidance behavior; Rattus norvegicus, 40 mg/kg po, at the indicated duration, read-out: Avoidance block at Duration of Sig. Activity (AB)
  inhibition in vivo at 40 mg/kg: 30%
Avoidance behavior; Rattus norvegicus, 40 mg/kg po, at time of peak effect, read-out: Avoidance block at Time of Peak Effect (AB)
  inhibition in vivo at 40 mg/kg: 90%
Avoidance behavior
  duration of neuroleptic effect (in words): several weeks
Avoidance behavior; p.o.
  time of maximum neuroleptic activity after administration: 7 to 10 days
[1]; 40 mg/kg PO, 7 Days Post-Drug
  Dopamine Turnover-Brain, Caudate: Signif. .uparw.
[2]; 40 mg/kg PO, 7 Days Post-Drug
  Dopamine Turnover-Brain, Limbic and Remainder: Not signif.
[3]; 168 h, 7 Days Post-Drug
  ED50: < 5 mg/kg
[3]; 1-4 hours
  Apomorphine Induced Emesis % Antagonism: 93%
[3]; 1 week
  Apomorphine Induced Emesis % Antagonism: 100%
[3]; 2-4 hours
  Apomorphine Induced Emesis % Antagonism: 100%
[3]; 2 weeks
  Apomorphine Induced Emesis % Antagonism: 100%
[3]; 3 weeks
  Apomorphine Induced Emesis % Antagonism: 100%
[3]; 4 weeks
  Apomorphine Induced Emesis % Antagonism: 100%
[3]; 5 weeks
  Apomorphine Induced Emesis % Antagonism: 100%
[3]; 6 weeks
  Apomorphine Induced Emesis % Antagonism: 100%
[3]; 7 weeks
  Apomorphine Induced Emesis % Antagonism: 56%
[3]; 8 weeks
  Apomorphine Induced Emesis % Antagonism: 40%
Continuous Avoidance [4]; 168 h, 7 Days Post-Drug
  minimal effective dose: < 5 mg/kg
Continuous Avoidance [4]; 1-4 hours
  Continuous Avoidance, % Decrease of Responding: 0%
Continuous Avoidance [4]; 1 week
  Continuous Avoidance, % Decrease of Responding: 35%
Continuous Avoidance [4]; 2-4 hours
  Continuous Avoidance, % Decrease of Responding: 15%
Continuous Avoidance [4]; 2 weeks
  Continuous Avoidance, % Decrease of Responding: 37%
Continuous Avoidance [4]; 3 weeks
  Continuous Avoidance, % Decrease of Responding: 24%
Continuous Avoidance [8]; 1-4 hours
  Continuous Avoidance, % Decrease of Responding: 0%
Continuous Avoidance [8]; 1 week
  Continuous Avoidance, % Decrease of Responding: 97%
Continuous Avoidance [8]; 2-4 hours
  Continuous Avoidance, % Decrease of Responding: 59%
Continuous Avoidance [8]; 2 weeks
  Continuous Avoidance, % Decrease of Responding: 96%
Continuous Avoidance [8]; 3 weeks
  Continuous Avoidance, % Decrease of Responding: 93%
Continuous Avoidance [8]; 4 weeks
  Continuous Avoidance, % Decrease of Responding: 84%
Continuous Avoidance [8]; 5 weeks
  Continuous Avoidance, % Decrease of Responding: 82%
Continuous Avoidance [8]; 6 weeks
  Continuous Avoidance, % Decrease of Responding: 55%
Continuous Avoidance [8]; 7 weeks
  Continuous Avoidance, % Decrease of Responding: 48%
Continuous Avoidance [8]; 8 weeks
  Continuous Avoidance, % Decrease of Responding: 32%
[9]
  IC50: 500 nM
[5]; 168 h, 7 Days Post-Drug
  ED50: < 15 mg/kg
[5]; 1-4 hours
  Amphetamine Induced Rotation % Antagonism: 14%
[5]; 1 week
  Amphetamine Induced Rotation % Antagonism: 97%
[5]; 2 weeks
  Amphetamine Induced Rotation % Antagonism: 95%
[5]; 3 weeks
  Amphetamine Induced Rotation % Antagonism: 87%
[5]; 4 weeks
  Amphetamine Induced Rotation % Antagonism: 87%
[5]; 5 weeks
  Amphetamine Induced Rotation % Antagonism: 62%
[5]; 6 weeks
  Amphetamine Induced Rotation % Antagonism: 28%
[5]; 7 weeks
  Amphetamine Induced Rotation % Antagonism: 4%
[6]; 168 h, 7 Days Post-Drug
  ED50: 19.6 mg/kg
Prolactin Secretion
  IC50: 15 nM
[10]
  IC50: 1.8 nM
Pole-Climb Avoidance; 1-4 hours
  Pole-Climb Avoidance, % Block: 30%
Pole-Climb Avoidance; 1 week
  Pole-Climb Avoidance, % Block: 50%
Pole-Climb Avoidance; 2 weeks
  Pole-Climb Avoidance, % Block: 44%
Pole-Climb Avoidance; 3 weeks
  Pole-Climb Avoidance, % Block: 11%
Revertant colonies
  revertant colonies (Ames): increased revertant colonies at the highest concentration tested
Serum Prolactin; 1-4 hours
  Serum Prolactin Levels % Increase: 215%
Serum Prolactin; 1 week
  Serum Prolactin Levels % Increase: 525%
Serum Prolactin; 2-4 hours
  Serum Prolactin Levels % Increase: 97%
Serum Prolactin; 3 weeks
  Serum Prolactin Levels % Increase: 251%
Serum Prolactin; 4 weeks
  Serum Prolactin Levels % Increase: 56%
[7]; ip
  LD50 at 24 h: 77.5 mg/kg
[7]; po
  LD50 at 168 h: 45 mg/kg
